Experimental data as given in US9796706B2, “Inhibitors of Jun N-terminal kinase” (IMAGO PHARMACEUTICALS, INC., priority 2009, dated 2017).

How the values were obtained:
Assay type in all cases: biochemical
Conditions in all cases: procedures of Example 14 (TR-FRET)
[1] = target: JNK3 (Homo sapiens (Human), UniProt P53779); assay: JNK3 TR-FRET kinase assay (Example 14)
Summary of the method: (§1)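 Two TR-FRET formats were used for each JNK isoform. In the direct one, preactivated aJNK phosphorylated EPIW-1 at about 1 mM final ATP (RT, 15 min). Both were EDTA-quenched and read by HTRF.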

[2] = target: JNK2 (Homo sapiens (Human), UniProt P45984); assay: JNK2 TR-FRET kinase assay (Example 14)
Summary of the method: as §1

[3] = target: JNK1 (Homo sapiens (Human), UniProt P45983); assay: JNK1 TR-FRET kinase assay (Example 14)
Summary of the method: as §1

Sequence of JNK3 (P53779 whole entry, species assumed, canonical isoform): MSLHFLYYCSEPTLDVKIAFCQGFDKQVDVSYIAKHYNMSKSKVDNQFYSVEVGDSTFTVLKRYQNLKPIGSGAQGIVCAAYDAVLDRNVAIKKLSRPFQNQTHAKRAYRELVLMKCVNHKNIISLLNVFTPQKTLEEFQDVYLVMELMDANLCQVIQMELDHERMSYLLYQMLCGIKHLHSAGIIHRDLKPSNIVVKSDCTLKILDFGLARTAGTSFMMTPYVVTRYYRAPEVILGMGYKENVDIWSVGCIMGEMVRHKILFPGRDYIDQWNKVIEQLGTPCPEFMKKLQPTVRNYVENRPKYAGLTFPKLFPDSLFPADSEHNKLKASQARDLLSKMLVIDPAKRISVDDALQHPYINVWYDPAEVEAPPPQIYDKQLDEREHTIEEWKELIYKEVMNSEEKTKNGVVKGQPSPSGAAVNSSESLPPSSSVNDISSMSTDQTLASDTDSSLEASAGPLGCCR
Sequence of JNK2 (P45984 whole entry, species assumed): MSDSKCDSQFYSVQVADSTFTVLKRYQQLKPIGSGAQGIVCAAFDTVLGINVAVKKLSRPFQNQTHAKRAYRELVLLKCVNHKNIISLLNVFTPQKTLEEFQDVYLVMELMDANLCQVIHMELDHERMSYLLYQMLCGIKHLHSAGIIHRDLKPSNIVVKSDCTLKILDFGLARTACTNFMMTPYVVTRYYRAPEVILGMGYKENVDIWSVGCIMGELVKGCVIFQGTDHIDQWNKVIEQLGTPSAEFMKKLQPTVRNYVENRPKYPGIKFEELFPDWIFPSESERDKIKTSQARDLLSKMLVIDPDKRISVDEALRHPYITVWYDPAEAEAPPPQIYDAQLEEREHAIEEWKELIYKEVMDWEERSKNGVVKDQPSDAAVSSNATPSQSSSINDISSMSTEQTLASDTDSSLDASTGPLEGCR
Sequence of JNK1 (P45983 other isoform, or with tags, fused parts or gaps isoform P45983-2, species assumed): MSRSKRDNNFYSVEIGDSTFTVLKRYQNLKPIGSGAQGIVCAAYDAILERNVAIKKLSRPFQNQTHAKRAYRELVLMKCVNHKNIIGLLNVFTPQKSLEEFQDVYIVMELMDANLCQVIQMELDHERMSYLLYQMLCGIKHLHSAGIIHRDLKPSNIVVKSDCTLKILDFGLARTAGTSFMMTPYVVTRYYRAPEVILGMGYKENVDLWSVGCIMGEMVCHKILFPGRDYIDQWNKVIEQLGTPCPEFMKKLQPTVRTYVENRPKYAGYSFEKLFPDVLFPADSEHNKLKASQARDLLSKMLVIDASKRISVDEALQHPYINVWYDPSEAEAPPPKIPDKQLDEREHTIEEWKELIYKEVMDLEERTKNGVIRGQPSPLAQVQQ

| Structure (SMILES) | IC50 [1] [µM] | IC50 [2] [µM] | IC50 [3] [µM] |
| --- | --- | --- | --- |
| O=C(Cc1cccc2cnccc12)Nc1scnc1-c1ncn[nH]1 [N-(4-(1H-1,2,4-triazol-5-yl)thiazol-5-yl)-2-(isoquinolin-5-yl)acetamide] | 0.1 to 10 | 0.1 to 10 | 0.1 to 10 |
| N#Cc1csc(NC(=O)Cn2c(=O)ccc3cc(C(F)(F)F)ccc32)c1-n1nnc2ccccc21 [N-(3-(1H-benzo[d][1,2,3]triazol-1-yl)-4-cyanothiophen-2-yl)-2-(2-oxo-6-(trifluoromethyl)quinolin-1(2H)-yl)acetamide] | 0.1 to 10 | 0.1 to 10 | 0.1 to 10 |
| O=C(Cc1cccc2cc(C(F)(F)F)cnc12)Nc1scc(Br)c1-c1nc[nH]n1 [N-(4-bromo-3-(1H-1,2,4-triazol-3-yl)thiophen-2-yl)-2-(3-(trifluoromethyl)quinolin-8-yl)acetamide] | 0.1 to 10 | 0.1 to 10 | 0.1 to 10 |
| COc1ccc(CC(=O)Nc2ccsc2-c2nnc(C(C)C)o2)cc1 [N-(2-(5-isopropyl-1,3,4-oxadiazol-2-yl)thiophen-3-yl)-2-(4-methoxyphenyl)acetamide] | > 10 | > 50 | > 10 |
| O=C(Cc1cccc2cnccc12)Nc1scnc1-c1cnccn1 [2-(isoquinolin-5-yl)-N-(4-(pyrazin-2-yl)thiazol-5-yl)acetamide] | 0.1 to 10 | 0.1 to 10 | 0.1 to 10 |
| COc1ccc(CC(=O)Nc2ccsc2-c2cnccn2)cc1 [2-(4-methoxyphenyl)-N-(2-(pyrazin-2-yl)thiophen-3-yl)acetamide] | 0.1 to 10 | 0.1 to 10 | 0.1 to 10 |
| COc1ccc(CC(=O)Nc2ccsc2-c2nc(C(F)(F)F)n[nH]2)cc1 [2-(4-methoxyphenyl)-N-(2-(3-(trifluoromethyl)-1H-1,2,4-triazol-5-yl)thiophen-3-yl)acetamide] | 0.1 to 10 | > 10 | 0.1 to 10 |
| COc1ccc(CC(=O)Nc2sccc2-c2noc(C)n2)cc1 [2-(4-methoxyphenyl)-N-(3-(5-methyl-1,2,4-oxadiazol-3-yl)thiophen-2-yl)acetamide] | 0.1 to 10 | 0.1 to 10 | 0.1 to 10 |
| Cn1ccnc1-c1sccc1NC(=O)Cc1cccc2ccccc12 [N-(2-(1-methyl-1H-imidazol-2-yl)thiophen-3-yl)-2-(naphthalen-1-yl)acetamide] | > 10 | > 50 | > 10 |
| O=C(CN1C(=O)CCc2ccccc21)Nc1ccsc1-c1cscn1 [2-(2-oxo-3,4-dihydroquinolin-1(2H)-yl)-N-(2-(thiazol-4-yl)thiophen-3-yl)acetamide] | 0.1 to 10 | 0.1 to 10 | 0.1 to 10 |
| Cc1csc(NC(=O)Cc2cccc3cnccc23)c1-c1nc2ccccc2s1 [N-(3-(benzo[d]thiazol-2-yl)-4-methylthiophen-2-yl)-2-(isoquinolin-5-yl)acetamide] | 0.1 to 10 | > 10 | 0.1 to 10 |
| Cc1n[nH]c(-c2c(Cl)csc2NC(=O)CN2C(=O)CCc3ncccc32)n1 [N-(4-chloro-3-(3-methyl-1H-1,2,4-triazol-5-yl)thiophen-2-yl)-2-(2-oxo-3,4-dihydro-1,5-naphthyridin-1(2H)-yl)acetamide] | < 0.1 | < 0.1 | < 0.1 |
| N#Cc1csc(NC(=O)CN2C(=O)CCc3ncccc32)c1-c1nc2ccccc2s1 [N-(3-(benzo[d]thiazol-2-yl)-4-cyanothiophen-2-yl)-2-(2-oxo-3,4-dihydro-1,5-naphthyridin-1(2H)-yl)acetamide] | 0.1 to 10 | 0.1 to 10 | 0.1 to 10 |
| Cc1csc(-c2sccc2NC(=O)Cc2cccc3cnccc23)n1 [2-(isoquinolin-5-yl)-N-(2-(4-methylthiazol-2-yl)thiophen-3-yl)acetamide] | 0.1 to 10 | 0.1 to 10 | 0.1 to 10 |
| O=C(Cc1cccc2ccncc12)Nc1scc(Br)c1-c1ncn[nH]1 [N-(4-bromo-3-(1H-1,2,4-triazol-5-yl)thiophen-2-yl)-2-(isoquinolin-8-yl)acetamide] | < 0.1 | 0.1 to 10 | < 0.1 |
| CCc1n[nH]c(-c2c(Cl)csc2NC(=O)CN2C(=O)CCc3ncccc32)n1 [N-(4-chloro-3-(3-ethyl-1H-1,2,4-triazol-5-yl)thiophen-2-yl)-2-(2-oxo-3,4-dihydro-1,5-naphthyridin-1(2H)-yl)acetamide] | < 0.1 | 0.1 to 10 | < 0.1 |

Now from value to molecule:

| IC50 [1] [µM] | IC50 [2] [µM] | IC50 [3] [µM] | Structure (SMILES) |
| --- | --- | --- | --- |
| < 0.1 | < 0.1 | < 0.1 | O=C(CN1C(=O)CCc2ncccc21)Nc1scc(Cl)c1-c1nc[nH]n1 [N-(4-chloro-3-(1H-1,2,4-triazol-3-yl)thiophen-2-yl)-2-(2-oxo-3,4-dihydro-1,5-naphthyridin-1(2H)-yl)acetamide] |
| < 0.1 | 0.1 to 10 | < 0.1 | O=C(Cc1ccnc2ccccc12)Nc1scc(Br)c1-c1nnc[nH]1 [N-(4-bromo-3-(4H-1,2,4-triazol-3-yl)thiophen-2-yl)-2-(quinolin-4-yl)acetamide] |
| < 0.1 | < 0.1 | < 0.1 | O=C(CN1C(=O)CCc2cc(F)ccc21)Nc1scc(Br)c1-c1ncn[nH]1 [N-(4-bromo-3-(1H-1,2,4-triazol-5-yl)thiophen-2-yl)-2-(6-fluoro-2-oxo-3,4-dihydroquinolin-1(2H)-yl)acetamide] |
| < 0.1 | 0.1 to 10 | < 0.1 | O=C(Cc1cccc2ncsc12)Nc1scc(Br)c1-c1ncn[nH]1 [2-(benzo[d]thiazol-7-yl)-N-(4-bromo-3-(1H-1,2,4-triazol-5-yl)thiophen-2-yl)acetamide] |
| < 0.1 | < 0.1 | < 0.1 | O=C(CN1C(=O)CCc2ccccc21)Nc1scc(Br)c1-c1ncn[nH]1 [N-(4-bromo-3-(1H-1,2,4-triazol-5-yl)thiophen-2-yl)-2-(2-oxo-3,4-dihydroquinolin-1(2H)-yl)acetamide] |
| < 0.1 | < 0.1 | < 0.1 | Cn1cnc(-c2c(Cl)csc2NC(=O)Cn2c(=O)ccc3cnc(C(F)(F)F)cc32)n1 [N-(4-chloro-3-(1-methyl-1H-1,2,4-triazol-3-yl)thiophen-2-yl)-2-(2-oxo-7-(trifluoromethyl)-1,6-naphthyridin-1(2H)-yl)acetamide] |
| < 0.1 | < 0.1 | < 0.1 | O=C(Cn1c(=O)ccc2cc(Cl)ccc21)Nc1scc(Br)c1-c1ncn[nH]1 [N-(4-bromo-3-(1H-1,2,4-triazol-5-yl)thiophen-2-yl)-2-(6-chloro-2-oxoquinolin-1(2H)-yl)acetamide] |
| < 0.1 | < 0.1 | < 0.1 | O=C(Cn1c(=O)ccn2nccc12)Nc1scc(Br)c1-c1ncn[nH]1 [N-(4-bromo-3-(1H-1,2,4-triazol-5-yl)thiophen-2-yl)-2-(5-oxopyrazolo[1,5-a]pyrimidin-4(5H)-yl)acetamide] |
| < 0.1 | < 0.1 | < 0.1 | O=C(CN1C(=O)CCc2ncccc21)Nc1scc(Br)c1-c1ncn[nH]1 [N-(4-bromo-3-(1H-1,2,4-triazol-5-yl)thiophen-2-yl)-2-(2-oxo-3,4-dihydro-1,5-naphthyridin-1(2H)-yl)acetamide] |
| < 0.1 | < 0.1 | < 0.1 | O=C(Cn1c(=O)ccc2cc(C(F)(F)F)ccc21)Nc1scc(Br)c1-c1ncn[nH]1 [N-(4-bromo-3-(1H-1,2,4-triazol-5-yl)thiophen-2-yl)-2-(2-oxo-6-(trifluoromethyl)quinolin-1(2H)-yl)acetamide] |
| < 0.1 | < 0.1 | < 0.1 | Cn1cnc(-c2c(C#N)csc2NC(=O)CN2C(=O)CCc3ncccc32)n1 [N-(4-cyano-3-(1-methyl-1H-1,2,4-triazol-3-yl)thiophen-2-yl)-2-(2-oxo-3,4-dihydro-1,5-naphthyridin-1(2H)-yl)acetamide] |
| < 0.1 | < 0.1 | < 0.1 | O=C(Cn1c(=O)ccc2cc(F)ccc21)Nc1scc(Br)c1-c1ncn[nH]1 [N-(4-bromo-3-(1H-1,2,4-triazol-5-yl)thiophen-2-yl)-2-(6-fluoro-2-oxoquinolin-1(2H)-yl)acetamide] |
| < 0.1 | < 0.1 | < 0.1 | N#Cc1csc(NC(=O)Cn2c(=O)ccc3cc(C(F)(F)F)ccc32)c1-n1nccn1 [N-(4-cyano-3-(2H-1,2,3-triazol-2-yl)thiophen-2-yl)-2-(2-oxo-6-(trifluoromethyl)quinolin-1(2H)-yl)acetamide] |
| < 0.1 | 0.1 to 10 | < 0.1 | O=C(Cc1cc(F)cc2ncccc12)Nc1scc(Br)c1-c1ncn[nH]1 [N-(4-bromo-3-(1H-1,2,4-triazol-5-yl)thiophen-2-yl)-2-(7-fluoroquinolin-5-yl)acetamide] |
| < 0.1 | < 0.1 | < 0.1 | O=C(Cc1cccc2ncccc12)Nc1scc(Cl)c1-c1ncn[nH]1 [N-(4-chloro-3-(1H-1,2,4-triazol-5-yl)thiophen-2-yl)-2-(quinolin-5-yl)acetamide] |
| < 0.1 | < 0.1 | < 0.1 | Cn1cnc(-c2c(Cl)csc2NC(=O)Cn2c(=O)ccn3nccc23)n1 [N-(4-chloro-3-(1-methyl-1H-1,2,4-triazol-3-yl)thiophen-2-yl)-2-(5-oxopyrazolo[1,5-a]pyrimidin-4(5H)-yl)acetamide] |
| < 0.1 | < 0.1 | < 0.1 | N#Cc1csc(NC(=O)CN2C(=O)CCc3ccccc32)c1-c1ncn[nH]1 [N-(4-cyano-3-(1H-1,2,4-triazol-5-yl)thiophen-2-yl)-2-(2-oxo-3,4-dihydroquinolin-1(2H)-yl)acetamide] |
| < 0.1 | < 0.1 | < 0.1 | O=C(Cn1c(=O)ccc2cc(C(F)(F)F)ccc21)Nc1scc(Cl)c1-c1ncn[nH]1 [N-(4-chloro-3-(1H-1,2,4-triazol-5-yl)thiophen-2-yl)-2-(2-oxo-6-(trifluoromethyl)quinolin-1(2H)-yl)acetamide] |
